Results taken from PubChem BioAssay (NCI).
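Values below derive from 48-hour exposures of cells grown in 96-well plates, with endpoints linearly interpolated between the two concentrations bracketing the appropriate inhibition level. GI50 marks 50% less growth. TGI marks complete inhibition of growth.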

How the values were obtained:
Assay in all cases: DTP human tumour cell line panel, 48 h
A498 renal = tested on: A498 renal
A549 NSCLC = tested on: A549 NSCLC
HS 578T breast = tested on: HS 578T breast
NCI-H522 lung = tested on: NCI-H522 lung
NCI/ADR-RES ovarian = tested on: NCI/ADR-RES ovarian
PC-3 prostate = tested on: PC-3 prostate
SK-MEL-28 melanoma = tested on: SK-MEL-28 melanoma
T-47D breast = tested on: T-47D breast
U251 CNS = tested on: U251 CNS
HOP-92 NSCLC = tested on: HOP-92 NSCLC

| SMILES | GI50 (A498 renal) [µM] | TGI (A498 renal) [µM] | GI50 (A549 NSCLC) [µM] | TGI (A549 NSCLC) [µM] | GI50 (HS 578T breast) [µM] | TGI (HS 578T breast) [µM] | GI50 (NCI-H522 lung) [µM] | TGI (NCI-H522 lung) [µM] | GI50 (NCI/ADR-RES ovarian) [µM] | TGI (NCI/ADR-RES ovarian) [µM] | GI50 (PC-3 prostate) [µM] | TGI (PC-3 prostate) [µM] | GI50 (SK-MEL-28 melanoma) [µM] | TGI (SK-MEL-28 melanoma) [µM] | GI50 (T-47D breast) [µM] | TGI (T-47D breast) [µM] | GI50 (U251 CNS) [µM] | TGI (U251 CNS) [µM] | GI50 (HOP-92 NSCLC) [µM] | TGI (HOP-92 NSCLC) [µM] |
| --- | --- | --- | --- | --- | --- | --- | --- | --- | --- | --- | --- | --- | --- | --- | --- | --- | --- | --- | --- | --- |
| COc1ccc(Cn2nc(-c3cc(OC)c(OC)c(OC)c3)c3c2CCc2cnoc2-3)cc1OC | 2 | 9.8 | 6.27 | > 100 | 2.22 | 15.2 | 3.17 | > 100 | 3.02 | 21.5 | 3.62 | 65.3 | 10.3 | > 100 | 4.16 | 39.9 | 4.97 | > 100 | – | – |
| N#CSc1ncnc2nc[nH]c12 | 24.1 | > 100 | 50.2 | > 100 | 4.79 | > 92.6 | 3.32 | 25.6 | 5.68 | > 100 | 28.7 | > 100 | 44.4 | > 100 | 2.25 | > 80 | 32.4 | > 100 | 6.91 | > 94 |
| N#Cc1ncc(/N=C/c2ccc(N(CCCl)CCCl)cc2)s1 | 1.63 | 4.4 | 28.2 | > 100 | 63.1 | > 100 | 29.8 | > 100 | 7.36 | > 100 | 34.9 | > 100 | 79.7 | > 100 | 6.71 | > 100 | 18.6 | > 100 | 24.7 | 93.3 |
| O=C1C(Cl)=C(N/N=c2/[nH][nH]/c(=N/NC3=C(Cl)C(=O)c4ccccc4C3=O)c3ccccc23)C(=O)c2ccccc21 | 11.5 | 24 | 21.9 | 52.2 | 13.5 | 66.3 | 2.78 | 10.9 | 21.4 | 73.2 | 8.64 | 28.7 | 19.5 | 39 | 6.71 | 36.8 | 15.4 | 29.2 | – | – |
| C=C(C)[C@@H]1CC[C@]2(C(=O)NCCCN)CC[C@]3(C)[C@H](CC[C@@H]4[C@@]5(C)CC[C@H](O)C(C)(C)[C@@H]5CC[C@]43C)[C@@H]12 | 22.9 | 49.2 | 19.6 | 66.5 | 40.5 | > 100 | 21 | 68.9 | 24.8 | 81.2 | 12.6 | 37.8 | 22.1 | 57.8 | 13.1 | 53.2 | 17.7 | 49.4 | 10.8 | 35.4 |
| CCn1c(-c2nonc2N)nc2cncc(C(=O)N3CCNCC3)c21 | > 25 | > 25 | > 25 | > 25 | > 25 | > 25 | > 25 | > 25 | > 25 | > 25 | > 25 | > 25 | > 25 | > 25 | > 25 | > 25 | > 25 | > 25 | > 25 | > 25 |
| CC12CCC(=O)C=C1CCC1C2CCC2(C)C(C(=O)Cn3cnc4c(=S)nc[nH]c43)CCC12 (stereo not drawn) | – | 79 | – | > 100 | – | > 100 | – | > 100 | – | > 100 | – | > 100 | – | > 100 | – | > 100 | – | > 100 | – | 37.7 |
| O=C(O)CSSCC(=O)O | – | > 100 | – | > 100 | – | > 100 | – | > 100 | – | > 100 | – | > 100 | – | > 100 | – | > 100 | – | > 100 | – | > 100 |
| CCN(CC)c1ccc(/C=C/c2cc(C)c3ccccc3n2)cc1 | 2.32 | 15.4 | 3.99 | > 100 | 2.09 | 5.75 | 1.31 | 3.91 | 1.93 | 16.3 | 4.84 | > 100 | 6.75 | > 100 | 4.46 | > 100 | 2.36 | 21.1 | 3.63 | 22.9 |
| COc1cc2c(cc1OC)-c1ccc3cc4c(cc3c1N(CCN1CCCC1)C2)OCO4 | 1.57 | 4.63 | 0.534 | 2.02 | 1.53 | 14.7 | 0.217 | 1.43 | 7 | 53.8 | 0.303 | 1.85 | 7.09 | 20.3 | 0.361 | 2.28 | 0.563 | 1.9 | 1.79 | 12 |
| CN(C)CCNC(=O)c1cccn2c(=O)c3cc4ccccc4cc3nc12 | 0.122 | 0.667 | – | – | 0.153 | 1.76 | 0.182 | 0.856 | 0.101 | 0.468 | 0.194 | > 22 | 0.424 | 2.9 | 0.417 | 19 | 0.114 | 18 | 0.538 | > 100 |
| CCN=C1C=CC(=C(c2ccc(N(C)C)cc2)c2ccc(N(C)C)cc2)c2ccccc21 | 0.16 | 0.453 | 0.0312 | 0.176 | 0.149 | 1.02 | – | – | 0.636 | 3.94 | 0.0468 | 1.06 | 0.15 | 1.66 | 0.0567 | 1.52 | 0.0297 | 0.198 | 0.0414 | 0.352 |
| CN(C)CCCNC(=O)c1cc(NC(=O)CCNS(=O)(=O)c2ccc3c(c2)C(=O)c2ccccc2C3=O)cn1C | > 100 | > 100 | > 100 | > 100 | > 100 | > 100 | > 100 | > 100 | > 100 | > 100 | > 100 | > 100 | – | – | > 100 | > 100 | – | – | 88.9 | > 100 |
